# From patent publication US20220031596A1, “ANTI-AGING AGENT AND ANTI-AGING METHOD” (priority 2018, published 2022)
# Tests used:
# [1] = system: thyroid-stimulating hormone concentration in the plasma; experiment: Evaluation of thyroid-stimulating hormone secretion promoting effect (plasma TSH, 24-week oral ingestion); format: in vivo, human; conditions: for thyroid-stimulating hormone concentration in the plasma, 0 weeks (before ingestion) / thyroid-stimulating hormone concentration in the plasma, 24 weeks (after ingestion) / thyroid-stimulating hormone concentration in the plasma, Change rate (24 weeks - 0 weeks): High Dose Group (200 mg/daily, oral), mean±SD; for thyroid-stimulating hormone concentration in the plasma, 0 weeks (before ingestion): baseline
# Procedure: In order to confirm a change in the thyroid-stimulating hormone quantity before and after ingestion of the nicotinamide mononucleotide, a test was conducted on healthy males and females aged 50 to 70 years.
# As a sample of Working Example 4, a capsule formulation containing the nicotinamide mononucleotide and starch (200 mg of the nicotinamide mononucleotide in 4 capsules) (manufactured by SHINKOWA PHARMACEUTICAL Co., Ltd.) was used.
# (§1) Each group consisting of five healthy males and females aged 50 to 70 years in an unbiased age group ingested the above capsule formulation once a day by 4 capsules for 24 weeks (total 10 subjects, 200 mg/daily ingestion). In order to conduct appropriate evaluations, those who had been regularly using medical products for chronic diseases, those who had been consuming healthy foods that may affect clinical research, and those who were currently participating in other clinical researches or clinical trials or had participated in other clinical researches or clinical trials within the last three months were excluded from the subject for the evaluation. The capsule formulations were ingested at 10 am (between meals and fasting state) together with water or lukewarm water (oral administration).
# Measurement of the thyroid-stimulating hormone quantity in the plasma was conducted by requesting the measurement to an external public organization according to a usual method. FIGS. 8a to 8c indicate transitions of the thyroid-stimulating hormone concentration (μU/ml) in the plasma for 24 weeks. FIG. 8a represents the transitions of the whole subjects; FIG. 8b represents the transitions of the male subjects; FIG. 8c represents the transitions of the female subjects. Further, FIGS. 9a to 9c indicate change rates (%) of the blood thyroid-stimulating hormone concentration up to 24 weeks when the nicotinamide mononucleotide was orally administered to the subjects for 24 weeks. FIG. 9a represents the change rates of the whole subjects; FIG. 9b represents the change rates of the male subjects; FIG. 9c represents the change rates of the female subjects. Further, Table 4 indicates the numerical values of the thyroid-stimulating hormone concentration (μU/ml) in the plasma before the ingestion of the nicotinamide mononucleotide (0 weeks) and after the ingestion of the nicotinamide mononucleotide (24 weeks). Note that the numerical values represent mean values±standard deviation.
# [2] = system: testosterone concentration in the plasma; experiment: Evaluation of testosterone secretion promoting effect (plasma testosterone, 24-week oral ingestion); format: in vivo, human; conditions: for testosterone concentration in the plasma, 0 weeks (before ingestion) / testosterone concentration in the plasma, 24 weeks (after ingestion) / testosterone concentration in the plasma, Change rate (24 weeks - 0 weeks): High Dose Group (200 mg/daily, oral), mean±SD; for testosterone concentration in the plasma, 0 weeks (before ingestion): baseline
# Procedure: In order to confirm a change in the testosterone quantity before and after ingestion of the nicotinamide mononucleotide, a test was conducted on healthy males and females aged 50 to 70 years.
# As a sample of Working Example 8, a capsule formulation containing the nicotinamide mononucleotide and starch (200 mg of the nicotinamide mononucleotide in 4 capsules) (manufactured by SHINKOWA PHARMACEUTICAL Co., Ltd.) was used.
# as §1, with “above high dose” for “above”
# Measurement of the testosterone quantity in the plasma was conducted by requesting the measurement to an external public organization according to a usual method. FIGS. 16a to 16c indicate transitions of the testosterone concentration (ng/ml) in the plasma for 24 weeks. FIG. 16a represents the transitions of the whole subjects; FIG. 16b represents the transitions of the male subjects; FIG. 16c represents the transitions of the female subjects. Further, FIGS. 17a to 17c indicate change rates (%) of the blood testosterone concentration up to 24 weeks when the nicotinamide mononucleotide was orally administered to the subjects for 24 weeks. FIG. 17a represents the change rates of the whole subjects; FIG. 17b represents the change rates of the male subjects; FIG. 17c represents the change rates of the female subjects. Further, Table 8 indicates the numerical values of the testosterone concentration (ng/ml) in the plasma before the ingestion of the nicotinamide mononucleotide (0 weeks) and after the ingestion of the nicotinamide mononucleotide (24 weeks). Note that the numerical values represent mean values±standard deviation.
compound,measurement,setting,value
NC(=O)c1ccc[n+]([C@@H]2O[C@H](COP(=O)([O-])O)[C@@H](O)[C@H]2O)c1 [nicotinamide mononucleotide],"thyroid-stimulating hormone concentration in the plasma, 0 weeks (before ingestion)",[1]; Female,2.56 ± 1.27 μU/ml
same,"thyroid-stimulating hormone concentration in the plasma, 24 weeks (after ingestion)",[1]; Female,2.61 ± 1.15 μU/ml
same,"thyroid-stimulating hormone concentration in the plasma, Change rate (24 weeks - 0 weeks)",[1]; Female,0.05 ± 0.98 μU/ml
same,"thyroid-stimulating hormone concentration in the plasma, 0 weeks (before ingestion)",[1]; Male,2.57 ± 1.65 μU/ml
same,"thyroid-stimulating hormone concentration in the plasma, 24 weeks (after ingestion)",[1]; Male,2.97 ± 1.52 μU/ml
same,"thyroid-stimulating hormone concentration in the plasma, Change rate (24 weeks - 0 weeks)",[1]; Male,0.40 ± 1.38 μU/ml
same,"thyroid-stimulating hormone concentration in the plasma, 0 weeks (before ingestion)",[1]; Whole Subjects,2.57 ± 1.39 μU/ml
same,"thyroid-stimulating hormone concentration in the plasma, 24 weeks (after ingestion)",[1]; Whole Subjects,2.79 ± 1.29 μU/ml
same,"thyroid-stimulating hormone concentration in the plasma, Change rate (24 weeks - 0 weeks)",[1]; Whole Subjects,0.23 ± 1.14 μU/ml
same,"thyroid-stimulating hormone concentrations in the plasma, effect of ingestion (in words)","[1]; oral, 200 mg/daily, 24 weeks, FIGS. 8a-8c, 9a-9c",increased
same,"testosterone concentration in the plasma, 0 weeks (before ingestion)",[2]; Female,0.09 ± 0.06 ng/mL
same,"testosterone concentration in the plasma, 24 weeks (after ingestion)",[2]; Female,0.10 ± 0.05 ng/mL
same,"testosterone concentration in the plasma, Change rate (24 weeks - 0 weeks)",[2]; Female,0.00 ± 0.03 ng/mL
same,"testosterone concentration in the plasma, 0 weeks (before ingestion)",[2]; Male,5.66 ± 1.54 ng/mL
same,"testosterone concentration in the plasma, 24 weeks (after ingestion)",[2]; Male,5.90 ± 1.59 ng/mL
same,"testosterone concentration in the plasma, Change rate (24 weeks - 0 weeks)",[2]; Male,0.25 ± 0.92 ng/mL
same,"testosterone concentration in the plasma, 0 weeks (before ingestion)",[2]; Whole Subjects,2.87 ± 3.11 ng/mL
same,"testosterone concentration in the plasma, 24 weeks (after ingestion)",[2]; Whole Subjects,3.00 ± 3.24 ng/mL
same,"testosterone concentration in the plasma, Change rate (24 weeks - 0 weeks)",[2]; Whole Subjects,0.13 ± 0.63 ng/mL
same,"testosterone concentrations in the plasma, effect of ingestion (in words)","[2]; oral, 200 mg/daily, 24 weeks, FIGS. 16a-16c, 17a-17c",increased
